Key:
Format in all cases: functional
[1] = species: Mus musculus; assay: Tested for potentiation of yohimbine toxicity in aggregated mice(Y)
[2] = species: Mus musculus; assay: Tested for stereotyped gnawing and licking behavior of mice pretreated with apomorphine (AG)
[3] = species: Mus musculus; assay: Prolongation of hypoxic survival time (HS) in mice
[4] = species: Mus musculus; assay: Tested for antagonism of nicotine-induced death (D) in mice
[5] = species: Mus musculus; assay: Tested for antagonism of oxotremorine hypothermia (OX) in mice
[6] = species: Mus musculus; assay: Tested for antagonism of nicotine-induced tonic extensor convulsions (TE) in mice
[7] = species: Mus musculus; assay: Tested for potentiation of gamma-butyrolactone induced sleep (gamma-B) in mice
[8] = species: Mus musculus; assay: Tested for antagonism of pentylenetetrazole-induced clonic convulsions (P) in mice
[9] = species: Mus musculus; assay: Tested for antagonism of bicuculline-induced tonic-extensor convulsions (B) in mice

In the case of `C#CCN(C)Cc1nnc2n1-c1ccc(Cl)cc1C(c1ccccc1)=NC2`, the ED50 [1] is reported as 18 mg/kg, the ED50 [2] is reported as 4.4 mg/kg and the ED50 [3] is reported as greater than 50 mg/kg. It also gave an ED50 [4] of 0.14 mg/kg, an ED50 [5] of 30 mg/kg and an ED50 [6] of 0.14 mg/kg. It also gave an ED50 [7] of 0.3 mg/kg, an ED50 [8] of 0.3 mg/kg and an ED50 [9] of 0.5 mg/kg.
With `CC(N)c1nnc2n1-c1ccccc1C(c1ccccc1Cl)=NC2` (centres undefined) the ED50 [1] was greater than 50 mg/kg, the ED50 [2] was greater than 50 mg/kg and the ED50 [3] was 0.2 mg/kg. The ED50 [5] was greater than 50 mg/kg, the ED50 [7] was 3 mg/kg and the ED50 [8] was 0.2 mg/kg. It also gave an ED50 [9] of 0.4 mg/kg.
With `Clc1ccc2c(c1)C(c1ccccc1)=NCc1nnc(CCCN3CCOCC3)n1-2` the ED50 [1] was greater than 50 mg/kg, the ED50 [2] was greater than 50 mg/kg and the ED50 [3] was 7 mg/kg. For the same compound, the ED50 [4] was 5.6 mg/kg, the ED50 [5] was greater than 50 mg/kg and the ED50 [6] was 5.6 mg/kg. The ED50 [7] was 10 mg/kg, the ED50 [8] was 10 mg/kg and the ED50 [9] was 7.1 mg/kg.
In the case of `CN(C)Cc1nnc2n1-c1ccc(Br)cc1C(c1ccccc1)=NC2`, the ED50 [1] is reported as 35.4 mg/kg, the ED50 [2] is reported as greater than 50 mg/kg and the ED50 [3] is reported as 0.8 mg/kg. It also gave an ED50 [5] of 7.4 mg/kg, an ED50 [7] of 0.1 mg/kg and an ED50 [8] of 0.7 mg/kg. It also gave an ED50 [9] of 0.8 mg/kg.
`CC(N)c1nnc2n1-c1ccc(Cl)cc1C(c1ccccc1)=NC2` (centres undefined) showed an ED50 [1] greater than 50 mg/kg, an ED50 [2] greater than 50 mg/kg and an ED50 [3] of 3 mg/kg. It also gave an ED50 [4] of 0.35 mg/kg, an ED50 [5] greater than 50 mg/kg and an ED50 [6] of 0.3 mg/kg. The ED50 [7] was 0.12 mg/kg, the ED50 [8] was 0.6 mg/kg and the ED50 [9] was 0.6 mg/kg.
`NCCc1nnc2n1-c1ccccc1C(c1ccccc1Cl)=NC2` was tested, and the ED50 [1] was greater than 50 mg/kg, the ED50 [2] was greater than 50 mg/kg and the ED50 [3] was 20 mg/kg. It also gave an ED50 [5] greater than 50 mg/kg, an ED50 [7] of 20 mg/kg and an ED50 [8] greater than 50 mg/kg. It also gave an ED50 [9] greater than 50 mg/kg.
For `CC(N)c1nnc2n1-c1ccc(Cl)cc1C(c1ccccc1Cl)=NC2` (centres undefined), the ED50 [1] was greater than 50 mg/kg, the ED50 [2] was greater than 50 mg/kg and the ED50 [3] was 0.02 mg/kg. It also gave an ED50 [4] of 0.025 mg/kg, an ED50 [5] greater than 50 mg/kg and an ED50 [6] of 0.023 mg/kg. The ED50 [7] was 0.2 mg/kg, the ED50 [8] was 2.2 mg/kg and the ED50 [9] was 0.2 mg/kg.
`C#CCNC(C)c1nnc2n1-c1ccc(Cl)cc1C(c1ccccc1)=NC2` (centres undefined) was tested, and the ED50 [1] was 21 mg/kg, the ED50 [2] was greater than 50 mg/kg and the ED50 [3] was 20 mg/kg. It also gave an ED50 [4] of 1.1 mg/kg, an ED50 [5] greater than 50 mg/kg and an ED50 [6] of 1.1 mg/kg. For the same compound, the ED50 [7] was 0.8 mg/kg, the ED50 [8] was 3.1 mg/kg and the ED50 [9] was 1.6 mg/kg.
`NCCc1nnc2n1-c1ccc(Br)cc1C(c1ccccn1)=NC2` was tested, and the ED50 [1] was 30 mg/kg, the ED50 [2] was greater than 50 mg/kg and the ED50 [3] was greater than 50 mg/kg. The ED50 [5] was 30 mg/kg, the ED50 [7] was 30 mg/kg and the ED50 [8] was greater than 50 mg/kg. The ED50 [9] was greater than 50 mg/kg.
For `NCCc1nnc2n1-c1ccc(Cl)cc1C(c1ccccc1)=NC2`, the ED50 [1] was 50 mg/kg, the ED50 [2] was 35 mg/kg and the ED50 [3] was greater than 50 mg/kg. It also gave an ED50 [4] of 6.3 mg/kg, an ED50 [5] of 4.4 mg/kg and an ED50 [6] of 7.1 mg/kg. It also gave an ED50 [7] of 7.4 mg/kg, an ED50 [8] of 10.5 mg/kg and an ED50 [9] of 17.7 mg/kg.
`CN(C)Cc1nnc2n1-c1ccc(Cl)cc1C(c1ccccc1)NC2` (centres undefined) gave an ED50 [1] greater than 50 mg/kg, an ED50 [2] greater than 50 mg/kg and an ED50 [3] greater than 50 mg/kg. For the same compound, the ED50 [4] was 25 mg/kg, the ED50 [5] was greater than 50 mg/kg and the ED50 [6] was 25 mg/kg. The ED50 [7] was 5.3 mg/kg, the ED50 [8] was 14.9 mg/kg and the ED50 [9] was 42 mg/kg.
`NCCc1nnc2n1-c1ccccc1C(c1ccccc1)=NC2` showed an ED50 [1] of 30 mg/kg, an ED50 [2] of 30 mg/kg and an ED50 [3] greater than 50 mg/kg. For the same compound, the ED50 [5] was 40 mg/kg, the ED50 [7] was greater than 50 mg/kg and the ED50 [8] was greater than 50 mg/kg. For the same compound, the ED50 [9] was greater than 50 mg/kg.
For `CNC(C)c1nnc2n1-c1ccc(Cl)cc1C(c1ccccc1)=NC2` (centres undefined), the ED50 [1] was 30 mg/kg, the ED50 [2] was 50 mg/kg and the ED50 [3] was 0.5 mg/kg. It also gave an ED50 [4] of 1 mg/kg, an ED50 [5] greater than 50 mg/kg and an ED50 [6] of 0.9 mg/kg. It also gave an ED50 [7] of 3.7 mg/kg, an ED50 [8] of 4.4 mg/kg and an ED50 [9] of 9 mg/kg.
With `Clc1ccc2c(c1)C(c1ccccc1)=NCc1nnc(CCCN3CCN(c4ccccc4)CC3)n1-2` the ED50 [3] was greater than 50 mg/kg, the ED50 [4] was 79 mg/kg and the ED50 [6] was 89 mg/kg. The ED50 [7] was 10 mg/kg, the ED50 [8] was greater than 50 mg/kg and the ED50 [9] was greater than 50 mg/kg.
In the case of `CC(N)Cc1nnc2n1-c1ccccc1C(c1ccccc1)=NC2` (centres undefined), the ED50 [1] is reported as 40 mg/kg, the ED50 [2] is reported as greater than 50 mg/kg and the ED50 [3] is reported as greater than 50 mg/kg. For the same compound, the ED50 [5] was greater than 50 mg/kg, the ED50 [7] was greater than 50 mg/kg and the ED50 [8] was greater than 50 mg/kg. The ED50 [9] was greater than 50 mg/kg.
`CN(C)Cc1nnc2cc(-c3ccccc3)c3cc(Cl)ccc3n12` gave an ED50 [2] greater than 50 mg/kg, an ED50 [4] of 89 mg/kg and an ED50 [5] greater than 50 mg/kg. For the same compound, the ED50 [6] was 89 mg/kg, the ED50 [7] was greater than 50 mg/kg and the ED50 [8] was greater than 50 mg/kg. It also gave an ED50 [9] greater than 50 mg/kg.
`CN(C)CCc1nnc2n1-c1ccccc1C(c1ccccc1Cl)=NC2` was tested, and the ED50 [1] was 30 mg/kg, the ED50 [2] was greater than 50 mg/kg and the ED50 [3] was 7 mg/kg. For the same compound, the ED50 [5] was greater than 50 mg/kg, the ED50 [7] was greater than 50 mg/kg and the ED50 [8] was 5 mg/kg. The ED50 [9] was greater than 50 mg/kg.
Work on `CC(N)Cc1nnc2n1-c1ccc(Cl)cc1C(c1ccccc1Cl)=NC2` (centres undefined) yielded an ED50 [1] greater than 50 mg/kg, an ED50 [2] greater than 50 mg/kg and an ED50 [3] of 25 mg/kg. The ED50 [5] was 17.7 mg/kg, the ED50 [7] was 3.7 mg/kg and the ED50 [8] was 10.5 mg/kg. The ED50 [9] was 7.4 mg/kg.
`CN(C)Cc1nnc2n1-c1ccccc1C(c1ccccc1Cl)=NC2` gave an ED50 [1] greater than 30 mg/kg, an ED50 [2] greater than 30 mg/kg and an ED50 [3] of 0.5 mg/kg. For the same compound, the ED50 [5] was greater than 30 mg/kg, the ED50 [6] was 0.13 mg/kg and the ED50 [7] was greater than 10 mg/kg. It also gave an ED50 [8] of 10 mg/kg and an ED50 [9] of 17.8 mg/kg.
